Experimental data taken from ChEMBL document CHEMBL4425156, “The evolution of P2X7 antagonists with a focus on CNS indications” (Bioorg Med Chem Lett, 2016).

Assays:
P2X purinoceptor 7 [1] = biological target: T1, P2X purinoceptor 7 (Homo sapiens, UniProt Q99572); experiment: Antagonist activity at human recombinant P2X7 receptor expressed in 1321N1 cells assessed as inhibition of BzATP-induced calcium mobilization incubated for 30 mins measured after 180 seconds by calcium-4 dye based FLIPR assay; format: cell-based
T1 sequence (Q99572 whole entry): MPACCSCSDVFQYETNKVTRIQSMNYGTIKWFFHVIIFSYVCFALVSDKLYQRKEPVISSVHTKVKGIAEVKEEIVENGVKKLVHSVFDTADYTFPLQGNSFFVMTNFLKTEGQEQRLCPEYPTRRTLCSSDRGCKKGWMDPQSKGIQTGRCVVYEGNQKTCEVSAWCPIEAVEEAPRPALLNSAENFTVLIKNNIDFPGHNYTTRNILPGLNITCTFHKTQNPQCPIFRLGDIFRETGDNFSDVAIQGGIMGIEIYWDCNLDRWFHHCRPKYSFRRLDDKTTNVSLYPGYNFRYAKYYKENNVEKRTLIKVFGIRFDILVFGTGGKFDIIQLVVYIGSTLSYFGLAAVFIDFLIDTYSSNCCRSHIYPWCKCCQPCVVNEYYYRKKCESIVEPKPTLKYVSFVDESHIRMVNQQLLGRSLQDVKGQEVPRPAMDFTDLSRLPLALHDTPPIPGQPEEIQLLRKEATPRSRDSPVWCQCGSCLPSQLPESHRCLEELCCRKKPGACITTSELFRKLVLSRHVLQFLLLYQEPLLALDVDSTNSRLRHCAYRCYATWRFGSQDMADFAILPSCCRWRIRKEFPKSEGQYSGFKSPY

[2] = Fraction unbound in human plasma; format: ADME, cell-free
P2X purinoceptor 7 [3] = biological target: T2, P2X purinoceptor 7 (Rattus norvegicus, UniProt Q64663); experiment: Antagonist activity at rat P2X7 receptor expressed in 1321N1 cells assessed as inhibition of BzATP-induced calcium mobilization incubated for 30 mins measured after 180 seconds by calcium-4 dye based FLIPR assay; format: cell-based
T2 sequence (Q64663 whole entry): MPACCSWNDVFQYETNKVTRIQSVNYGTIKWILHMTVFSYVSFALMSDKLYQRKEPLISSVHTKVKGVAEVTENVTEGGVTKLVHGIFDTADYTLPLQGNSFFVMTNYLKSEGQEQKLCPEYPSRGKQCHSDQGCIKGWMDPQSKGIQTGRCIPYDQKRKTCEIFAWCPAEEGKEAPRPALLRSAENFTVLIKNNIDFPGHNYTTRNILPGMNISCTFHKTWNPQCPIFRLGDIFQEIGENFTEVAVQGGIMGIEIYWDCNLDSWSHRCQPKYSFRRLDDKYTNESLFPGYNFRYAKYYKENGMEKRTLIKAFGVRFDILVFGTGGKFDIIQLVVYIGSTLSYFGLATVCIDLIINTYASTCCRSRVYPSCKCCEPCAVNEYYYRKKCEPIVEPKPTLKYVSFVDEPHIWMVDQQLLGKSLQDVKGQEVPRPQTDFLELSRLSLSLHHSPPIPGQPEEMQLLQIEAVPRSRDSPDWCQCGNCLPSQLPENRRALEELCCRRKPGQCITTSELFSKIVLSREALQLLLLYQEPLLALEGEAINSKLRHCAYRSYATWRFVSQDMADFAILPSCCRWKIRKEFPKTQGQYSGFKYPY

[4] = Fraction unbound in rat plasma; format: ADME, cell-free
Cytochrome P450 3A4 = Cytochrome P450 3A4 (Homo sapiens, UniProt P08684); experiment: Inhibition of CYP3A4 (unknown origin); format: ADME
Cytochrome P450 3A4, sequence (P08684 whole entry): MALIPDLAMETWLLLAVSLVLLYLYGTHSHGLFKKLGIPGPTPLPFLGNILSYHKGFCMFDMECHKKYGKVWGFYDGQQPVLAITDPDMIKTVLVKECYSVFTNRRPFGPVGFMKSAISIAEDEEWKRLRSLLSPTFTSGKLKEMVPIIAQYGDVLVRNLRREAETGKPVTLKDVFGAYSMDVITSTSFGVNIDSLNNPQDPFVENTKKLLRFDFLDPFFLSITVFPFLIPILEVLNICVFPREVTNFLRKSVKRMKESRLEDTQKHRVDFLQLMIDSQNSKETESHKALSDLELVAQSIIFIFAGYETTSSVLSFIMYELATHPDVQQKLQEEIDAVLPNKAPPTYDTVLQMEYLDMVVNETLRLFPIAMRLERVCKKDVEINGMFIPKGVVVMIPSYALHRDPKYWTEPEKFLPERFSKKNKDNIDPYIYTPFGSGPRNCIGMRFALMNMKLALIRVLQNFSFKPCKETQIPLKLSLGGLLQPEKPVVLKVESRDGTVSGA

Rattus norvegicus [5] = experiment: Ex vivo inhibition of P2X7 in po dosed rat measured after 1 to 2 hrs by ARG assay; format: functional, organism-based
[6] = Cmax in dog at 2.5 mg/kg, po; format: ADME, organism-based, Canis lupus familiaris; design: dose 2.5 mg/kg, route oral; details: in vivo
[7] = Oral bioavailability in dog at 2.5 mg/kg; format: ADME, organism-based, Canis lupus familiaris; details: in vivo
P2X purinoceptor 7 [8] = biological target: T1, P2X purinoceptor 7; experiment: Antagonist activity at human P2X7 receptor expressed in HEK293 cells assessed as inhibition of BzATP-induced calcium mobilization monitored for 5 mins followed by stimulation with BzATP measured after 3 mins by Fluo-8 NW dye based tetra FLIPR assay; format: cell-based
[9] = Efflux ratio of apparent permeability from basolateral to apical over apical to basolateral side in human Caco2 cells at 10 uM after 40 to 60 mins by LC-MS/MS analysis; format: ADME, cell-based; details: Caco-2
[10] = Oral bioavailability in rat at 10 mg/kg; format: ADME, organism-based; details: in vivo
[11] = Ratio of drug level in brain to plasma in rat at 10 mg/kg, po; format: ADME, organism-based; details: read-out: BPR
Rattus norvegicus [12] = experiment: Ex vivo receptor occupancy at P2X7 receptor in rat at 10 mg/kg, po; format: functional
P2X purinoceptor 7 [13] = biological target: T1, P2X purinoceptor 7; experiment: Antagonist activity at human recombinant P2X7 receptor expressed in HEK293 cells assessed as inhibition of ATP-induced calcium mobilization incubated for 90 mins in presence of ATP by YO-PRO-1 dye based tetra FLIPR assay; format: cell-based
P2X purinoceptor 7 [14] = biological target: T1, P2X purinoceptor 7; experiment: Antagonist activity at human P2X7 receptor expressed in HEK293 cells assessed as inhibition of BzATP-induced calcium mobilization incubated for 30 mins by Fluo-4 NW dye based tetra FLIPR assay; format: cell-based
P2X purinoceptor 7 [15] = biological target: T1, P2X purinoceptor 7; experiment: Antagonist activity at human P2X7 receptor expressed in THP1 cells assessed as inhibition of BzATP-induced IL-1beta release preincubated for 20 mins followed by stimulation with BzATP for 30 mins by sandwich ELISA; format: cell-based
P2X purinoceptor 7 [16] = biological target: T1, P2X purinoceptor 7; experiment: Antagonist activity at human P2X7 receptor expressed in HEK293 cells assessed as inhibition of BzATP-induced pore formation incubated for 20 mins followed by stimulation with BzATP for 30 mins by YO-PRO dye based fluorescence plate reader method; format: cell-based

Row | SMILES | IC50 (P2X purinoceptor 7 [1]) | IC50 (P2X purinoceptor 7 [3]) | efflux ratio at 10 µM [9] | further results
1 | Cc1nc2c(c(-c3ccccc3)n1)CCN(C(=O)c1cccc(C(F)(F)F)c1Cl)C2 | 240 nM | – | – | fraction unbound [2]: 0.032
2 | Cc1nc2c(c(-c3ccn[nH]3)n1)CCN(C(=O)c1cccc(C(F)(F)F)c1Cl)C2 | 8.5 nM | 1140 nM | – | fraction unbound [4]: 0.074
3 | Cc1nc2c(c(-c3ccn[nH]3)n1)C[C@@H](C)N(C(=O)c1cccc(C(F)(F)F)c1Cl)C2 | – | – | – | IC50 (Cytochrome P450 3A4): 3.3 µM; EC50 (Rattus norvegicus [5]): 8 nM; Cmax [6]: 571 nM; bioavailability [7]: 35%
4 | Cc1nc2c(c(-c3ccn[nH]3)n1)C[C@@H](C)N(C(=O)c1ccc(Cl)cc1F)C2 | 19 nM | – | – | IC50 (Cytochrome P450 3A4): > 10 µM; EC50 (Rattus norvegicus [5]): 100 nM
5 | O=C(NCC(CC1(C(F)F)CC1)c1ccc(C2CC2)nc1)c1cccc(Cl)c1Cl (stereo not drawn) | – | – | – | IC50 (P2X purinoceptor 7 [8]): 0.79 nM
6 | O=C(c1cccc(C(F)(F)F)c1Cl)N1CCn2c(nnc2C(F)(F)F)[C@H]1c1ccccc1 | 8.7 nM | 42 nM | 0.75 | bioavailability [10]: 78%; Kp [11]: 0.5; Occ (Rattus norvegicus [12]): >80%
7 | Cc1nnc2n1CCN(C(=O)c1cccc(C(F)(F)F)c1Cl)[C@@H]2c1ccccc1 | 2.7 nM | 27 nM | 5.1 | –
8 | CCCCc1nnc2n1CCN(C(=O)c1cccc(C(F)(F)F)c1Cl)[C@@H]2c1ccccc1 | 8.5 nM | 20 nM | 1.22 | –
9 | O=C(NCC1(c2ccc(Cl)nc2)CCCCC1)c1c(Cl)ccc2[nH]ccc12 | – | – | – | IC50 (P2X purinoceptor 7 [13]): 3.2 nM
10 | O=C(c1cccc(C(F)(F)F)c1Cl)N1CCn2cnnc2[C@H]1c1ccccc1 | 4.5 nM | 64 nM | 4.5 | –
11 | Cc1ncc(C(CNC(=O)c2cc(-c3ncc(F)cn3)ccc2Cl)N2CCCC(F)(F)C2)s1 (stereo not drawn) | – | – | – | IC50 (P2X purinoceptor 7 [14]): 22 nM
12 | C[C@H]1CC[C@@](O)(CNC(=O)c2cc(C3CCOC3)n3cccc(Cl)c23)CC1 (stereo partly drawn) | – | – | – | IC50 (P2X purinoceptor 7 [15]): < 10 nM; IC50 (P2X purinoceptor 7 [16]): < 10 nM
13 | CCc1nnc2n1CCN(C(=O)c1cccc(C(F)(F)F)c1Cl)[C@@H]2c1ccccc1 | 2.4 nM | – | 3.24 | –
14 | O=C(NCC(c1cnc(C(F)(F)F)nc1)N1CCOCC1)c1c(Cl)ccc2[nH]ccc12 (stereo not drawn) | – | – | – | IC50 (P2X purinoceptor 7 [13]): 3.9 nM
15 | CN(C)C(=O)CCNc1ccc2c(C(=O)NCC3CCC(F)(F)CC3)c(Cl)ccc2n1 | – | – | – | IC50 (P2X purinoceptor 7 [15]): < 10 nM; IC50 (P2X purinoceptor 7 [16]): < 10 nM
16 | O=C(c1cccc(C(F)(F)F)c1Cl)N1CCn2c(C3CC3)nnc2[C@H]1c1ccccc1 | 6.9 nM | 17 nM | 3.33 | –
17 | CC(C)(C)c1nnc2n1CCN(C(=O)c1cccc(C(F)(F)F)c1Cl)[C@@H]2c1ccccc1 | 11 nM | – | 2 | –
18 | O=C(NCC1(c2ccc(Cl)nc2)CCCCC1)C1CCCc2[nH]ccc21 (stereo not drawn) | – | – | – | IC50 (P2X purinoceptor 7 [13]): 3.4 nM
